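Five concentrations, 48 hours, 96-well plates. Here, GI50 denotes the concentration required for 50% inhibition of growth.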 Calls of active or inactive are those of the source. No stated cut-off is given here; in the data, active = GI50 up to about 1.1 µM and inactive = higher.
Columns and labels:
Assay in all cases: NCI tumour cell line growth inhibition, 48 h
786-0 = system: 786-0
A498 = system: A498
A549 = system: A549
ACHN = system: ACHN
BT-549 = system: BT-549
CAKI-1 = system: CAKI-1
COLO 205 = system: COLO 205
DU-145 = system: DU-145
EKVX = system: EKVX
HCC 2998 = system: HCC 2998
HCT-116 = system: HCT-116
HCT-15 = system: HCT-15
HL-60 = system: HL-60
HOP-62 = system: HOP-62
HOP-92 = system: HOP-92
HT-29 = system: HT-29
Hs-578T = system: Hs-578T
IGROV-1 = system: IGROV-1
K562 = system: K562
LOX IMVI = system: LOX IMVI
M14 = system: M14
MCF7 = system: MCF7
MDA-MB-231 = system: MDA-MB-231
MDA-MB-435 = system: MDA-MB-435
MDA-N = system: MDA-N
MOLT-4 = system: MOLT-4
Malme-3M = system: Malme-3M
NCI-H226 = system: NCI-H226
NCI-H23 = system: NCI-H23
NCI-H460 = system: NCI-H460
NCI-H522 = system: NCI-H522
NCI/ADR-RES = system: NCI/ADR-RES
OVCAR-3 = system: OVCAR-3
OVCAR-4 = system: OVCAR-4
OVCAR-5 = system: OVCAR-5
OVCAR-8 = system: OVCAR-8
PC-3 = system: PC-3
RPMI-8226 = system: RPMI-8226
RXF 393 = system: RXF 393
SF-268 = system: SF-268
SF-295 = system: SF-295
SF-539 = system: SF-539
SK-MEL-28 = system: SK-MEL-28
SK-MEL-2 = system: SK-MEL-2
SK-MEL-5 = system: SK-MEL-5
SK-OV-3 = system: SK-OV-3
SN12C = system: SN12C
SNB-19 = system: SNB-19
SNB-75 = system: SNB-75
SR = system: SR
SW-620 = system: SW-620
T47D = system: T47D
TK-10 = system: TK-10
U-251 = system: U-251
UACC-257 = system: UACC-257
UO-31 = system: UO-31
CCRF-CEM = system: CCRF-CEM
KM12 = system: KM12
UACC-62 = system: UACC-62

Cc1csc(CP(=O)(OC(C)C)OC(C)C)n1
GI50 (786-0): > 100 µM (inactive) | GI50 (A498): > 100 µM (inactive) | GI50 (A549): > 100 µM (inactive) | GI50 (ACHN): > 100 µM (inactive) | GI50 (BT-549): > 100 µM (inactive) | GI50 (CAKI-1): > 100 µM (inactive) | GI50 (COLO 205): > 100 µM (inactive) | GI50 (DU-145): > 100 µM (inactive) | GI50 (EKVX): > 100 µM (inactive) | GI50 (HCC 2998): > 100 µM (inactive) | GI50 (HCT-116): > 100 µM (inactive) | GI50 (HCT-15): > 100 µM | GI50 (HL-60): > 100 µM (inactive) | GI50 (HOP-62): > 100 µM (inactive) | GI50 (HOP-92): > 100 µM (inactive) | GI50 (HT-29): > 100 µM (inactive) | GI50 (Hs-578T): > 100 µM (inactive) | GI50 (IGROV-1): > 100 µM (inactive) | GI50 (K562): > 100 µM (inactive) | GI50 (LOX IMVI): > 100 µM (inactive) | GI50 (M14): > 100 µM (inactive) | GI50 (MCF7): > 100 µM (inactive) | GI50 (MDA-MB-231): > 100 µM (inactive) | GI50 (MDA-MB-435): > 100 µM (inactive) | GI50 (MDA-N): > 100 µM (inactive) | GI50 (MOLT-4): > 100 µM (inactive) | GI50 (Malme-3M): > 100 µM (inactive) | GI50 (NCI-H226): > 100 µM (inactive) | GI50 (NCI-H23): > 100 µM (inactive) | GI50 (NCI-H460): > 100 µM (inactive) | GI50 (NCI-H522): > 100 µM (inactive) | GI50 (NCI/ADR-RES): > 100 µM (inactive) | GI50 (OVCAR-3): > 100 µM (inactive) | GI50 (OVCAR-4): > 100 µM (inactive) | GI50 (OVCAR-5): > 100 µM (inactive) | GI50 (OVCAR-8): > 100 µM (inactive) | GI50 (PC-3): > 100 µM (inactive) | GI50 (RPMI-8226): > 100 µM (inactive) | GI50 (RXF 393): > 100 µM (inactive) | GI50 (SF-268): > 100 µM (inactive) | GI50 (SF-295): > 100 µM (inactive) | GI50 (SF-539): > 100 µM (inactive) | GI50 (SK-MEL-28): > 100 µM (inactive) | GI50 (SK-MEL-2): > 100 µM (inactive) | GI50 (SK-MEL-5): > 100 µM (inactive) | GI50 (SK-OV-3): > 100 µM (inactive) | GI50 (SN12C): > 100 µM (inactive) | GI50 (SNB-19): > 100 µM (inactive) | GI50 (SNB-75): > 100 µM (inactive) | GI50 (SR): > 100 µM (inactive) | GI50 (SW-620): > 100 µM (inactive) | GI50 (T47D): > 100 µM (inactive) | GI50 (TK-10): > 100 µM (inactive) | GI50 (U-251): > 100 µM (inactive) | GI50 (UACC-257): > 100 µM (inactive) | GI50 (UO-31): 74 µM (inactive)

CC(=O)[C@@H](C)C(=O)N1C(=O)OC[C@@]12[C@@H]1CC[C@@H](C1)C2(C)C
GI50 (786-0): > 100 µM (inactive) | GI50 (A498): > 100 µM (inactive) | GI50 (A549): > 100 µM (inactive) | GI50 (ACHN): > 100 µM (inactive) | GI50 (BT-549): > 100 µM (inactive) | GI50 (CAKI-1): 71.8 µM (inactive) | GI50 (CCRF-CEM): > 100 µM (inactive) | GI50 (COLO 205): > 100 µM (inactive) | GI50 (DU-145): > 100 µM (inactive) | GI50 (EKVX): > 100 µM (inactive) | GI50 (HCC 2998): > 100 µM (inactive) | GI50 (HCT-116): > 100 µM (inactive) | GI50 (HCT-15): > 100 µM | GI50 (HL-60): > 100 µM (inactive) | GI50 (HOP-62): > 100 µM (inactive) | GI50 (HOP-92): > 100 µM (inactive) | GI50 (HT-29): > 100 µM (inactive) | GI50 (Hs-578T): > 100 µM (inactive) | GI50 (IGROV-1): > 100 µM (inactive) | GI50 (K562): > 100 µM (inactive) | GI50 (KM12): > 100 µM (inactive) | GI50 (LOX IMVI): > 100 µM (inactive) | GI50 (M14): > 100 µM (inactive) | GI50 (MCF7): > 100 µM (inactive) | GI50 (MDA-MB-231): > 100 µM (inactive) | GI50 (MDA-MB-435): > 100 µM (inactive) | GI50 (MDA-N): > 100 µM (inactive) | GI50 (Malme-3M): > 100 µM (inactive) | GI50 (NCI-H226): > 100 µM (inactive) | GI50 (NCI-H23): > 100 µM (inactive) | GI50 (NCI-H460): > 100 µM (inactive) | GI50 (NCI-H522): > 100 µM (inactive) | GI50 (NCI/ADR-RES): > 100 µM (inactive) | GI50 (OVCAR-4): > 100 µM (inactive) | GI50 (OVCAR-5): > 100 µM (inactive) | GI50 (OVCAR-8): > 100 µM (inactive) | GI50 (PC-3): > 100 µM (inactive) | GI50 (RPMI-8226): > 100 µM (inactive) | GI50 (RXF 393): > 100 µM (inactive) | GI50 (SF-295): > 100 µM (inactive) | GI50 (SF-539): > 100 µM (inactive) | GI50 (SK-MEL-28): > 100 µM (inactive) | GI50 (SK-MEL-2): > 100 µM (inactive) | GI50 (SK-MEL-5): > 100 µM (inactive) | GI50 (SK-OV-3): > 100 µM (inactive) | GI50 (SN12C): > 100 µM (inactive) | GI50 (SNB-19): > 100 µM (inactive) | GI50 (SNB-75): > 100 µM (inactive) | GI50 (SR): 78.7 µM (inactive) | GI50 (SW-620): > 100 µM (inactive) | GI50 (T47D): > 100 µM (inactive) | GI50 (TK-10): > 100 µM (inactive) | GI50 (U-251): > 100 µM (inactive) | GI50 (UACC-257): > 100 µM (inactive) | GI50 (UACC-62): > 100 µM (inactive) | GI50 (UO-31): > 100 µM (inactive)

CC1=[N+](C)CCCN1C
GI50 (786-0): > 100 µM (inactive) | GI50 (A498): 8.69 µM (inactive) | GI50 (A549): > 100 µM (inactive) | GI50 (ACHN): > 100 µM (inactive) | GI50 (BT-549): > 100 µM (inactive) | GI50 (CAKI-1): > 100 µM (inactive) | GI50 (CCRF-CEM): > 100 µM (inactive) | GI50 (COLO 205): > 100 µM (inactive) | GI50 (DU-145): > 100 µM (inactive) | GI50 (EKVX): > 100 µM (inactive) | GI50 (HCC 2998): > 100 µM (inactive) | GI50 (HCT-116): > 100 µM (inactive) | GI50 (HCT-15): > 100 µM | GI50 (HL-60): > 100 µM (inactive) | GI50 (HOP-62): > 100 µM (inactive) | GI50 (HOP-92): > 100 µM (inactive) | GI50 (HT-29): > 100 µM (inactive) | GI50 (Hs-578T): > 100 µM (inactive) | GI50 (IGROV-1): > 100 µM (inactive) | GI50 (K562): > 100 µM (inactive) | GI50 (KM12): > 100 µM (inactive) | GI50 (LOX IMVI): > 100 µM (inactive) | GI50 (M14): > 100 µM (inactive) | GI50 (MCF7): > 100 µM (inactive) | GI50 (MDA-MB-231): > 100 µM (inactive) | GI50 (MDA-MB-435): > 100 µM (inactive) | GI50 (MDA-N): > 100 µM (inactive) | GI50 (MOLT-4): > 100 µM (inactive) | GI50 (Malme-3M): > 100 µM (inactive) | GI50 (NCI-H226): > 100 µM (inactive) | GI50 (NCI-H23): > 100 µM (inactive) | GI50 (NCI-H460): > 100 µM (inactive) | GI50 (NCI-H522): > 100 µM (inactive) | GI50 (NCI/ADR-RES): > 100 µM (inactive) | GI50 (OVCAR-3): > 100 µM (inactive) | GI50 (OVCAR-4): > 100 µM (inactive) | GI50 (OVCAR-5): > 100 µM (inactive) | GI50 (OVCAR-8): > 100 µM (inactive) | GI50 (PC-3): > 100 µM (inactive) | GI50 (RPMI-8226): > 100 µM (inactive) | GI50 (RXF 393): > 100 µM (inactive) | GI50 (SF-268): > 100 µM (inactive) | GI50 (SF-295): > 100 µM (inactive) | GI50 (SF-539): > 100 µM (inactive) | GI50 (SK-MEL-28): > 100 µM (inactive) | GI50 (SK-MEL-2): > 100 µM (inactive) | GI50 (SK-MEL-5): > 100 µM (inactive) | GI50 (SK-OV-3): > 100 µM (inactive) | GI50 (SN12C): > 100 µM (inactive) | GI50 (SNB-19): > 100 µM (inactive) | GI50 (SNB-75): > 100 µM (inactive) | GI50 (SR): > 100 µM (inactive) | GI50 (SW-620): > 100 µM (inactive) | GI50 (T47D): > 100 µM (inactive) | GI50 (TK-10): > 100 µM (inactive) | GI50 (U-251): > 100 µM (inactive) | GI50 (UACC-257): > 100 µM (inactive) | GI50 (UO-31): > 100 µM (inactive)

— ChEMBL document CHEMBL1201862, “PubChem BioAssay data set” (2004)
